Assay results reported in publication PMC3914206.

Tests used:
Assay type in all cases: binding
Conditions in all cases: Compound Concentration 10 µM
[1] = molecular target: T1, panel of 442 kinases (Homo sapiens, UniProt P07333)
T1 construct: purchased KINOMEscan
Description: (§1) We assessed the selectivity of members of this scaffold using the KINOMEscan methodology across a near comprehensive panel of 442 kinases [[18,27]].

[2] = molecular target: T2, panel of 442 kinases (Homo sapiens, UniProt P22607)
T2 construct: purchased KINOMEscan
Description: as §1

[3] = molecular target: T3, panel of 442 kinases (Homo sapiens, UniProt Q16513)
T3 construct: purchased KINOMEscan
Description: as §1

T1 sequence (P07333 20-972): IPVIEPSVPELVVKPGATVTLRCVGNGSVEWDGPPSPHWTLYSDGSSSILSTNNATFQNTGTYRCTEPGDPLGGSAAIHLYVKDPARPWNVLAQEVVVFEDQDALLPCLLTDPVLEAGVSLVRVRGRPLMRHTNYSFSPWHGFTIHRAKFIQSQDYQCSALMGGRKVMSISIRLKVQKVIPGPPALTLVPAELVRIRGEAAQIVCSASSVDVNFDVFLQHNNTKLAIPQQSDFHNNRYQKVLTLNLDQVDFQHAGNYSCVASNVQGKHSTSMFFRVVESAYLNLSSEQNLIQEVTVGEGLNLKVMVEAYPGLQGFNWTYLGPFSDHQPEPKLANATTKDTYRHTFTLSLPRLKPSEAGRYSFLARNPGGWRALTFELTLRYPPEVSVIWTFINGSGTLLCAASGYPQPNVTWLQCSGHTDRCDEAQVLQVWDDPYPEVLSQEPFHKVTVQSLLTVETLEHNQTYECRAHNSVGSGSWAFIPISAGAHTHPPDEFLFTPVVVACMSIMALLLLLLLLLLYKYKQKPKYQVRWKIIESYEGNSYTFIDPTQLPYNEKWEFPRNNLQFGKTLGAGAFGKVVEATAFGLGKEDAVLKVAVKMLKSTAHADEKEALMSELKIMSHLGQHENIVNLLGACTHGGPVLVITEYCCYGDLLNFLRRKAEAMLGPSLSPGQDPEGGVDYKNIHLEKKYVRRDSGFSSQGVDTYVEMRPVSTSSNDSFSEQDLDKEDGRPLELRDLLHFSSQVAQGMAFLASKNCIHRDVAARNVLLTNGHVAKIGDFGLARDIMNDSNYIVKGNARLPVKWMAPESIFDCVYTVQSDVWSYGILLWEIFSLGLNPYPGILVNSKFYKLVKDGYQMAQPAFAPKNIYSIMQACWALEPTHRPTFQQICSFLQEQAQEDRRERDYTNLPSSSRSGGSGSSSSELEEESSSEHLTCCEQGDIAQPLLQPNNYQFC
T2 sequence (P22607 23-806): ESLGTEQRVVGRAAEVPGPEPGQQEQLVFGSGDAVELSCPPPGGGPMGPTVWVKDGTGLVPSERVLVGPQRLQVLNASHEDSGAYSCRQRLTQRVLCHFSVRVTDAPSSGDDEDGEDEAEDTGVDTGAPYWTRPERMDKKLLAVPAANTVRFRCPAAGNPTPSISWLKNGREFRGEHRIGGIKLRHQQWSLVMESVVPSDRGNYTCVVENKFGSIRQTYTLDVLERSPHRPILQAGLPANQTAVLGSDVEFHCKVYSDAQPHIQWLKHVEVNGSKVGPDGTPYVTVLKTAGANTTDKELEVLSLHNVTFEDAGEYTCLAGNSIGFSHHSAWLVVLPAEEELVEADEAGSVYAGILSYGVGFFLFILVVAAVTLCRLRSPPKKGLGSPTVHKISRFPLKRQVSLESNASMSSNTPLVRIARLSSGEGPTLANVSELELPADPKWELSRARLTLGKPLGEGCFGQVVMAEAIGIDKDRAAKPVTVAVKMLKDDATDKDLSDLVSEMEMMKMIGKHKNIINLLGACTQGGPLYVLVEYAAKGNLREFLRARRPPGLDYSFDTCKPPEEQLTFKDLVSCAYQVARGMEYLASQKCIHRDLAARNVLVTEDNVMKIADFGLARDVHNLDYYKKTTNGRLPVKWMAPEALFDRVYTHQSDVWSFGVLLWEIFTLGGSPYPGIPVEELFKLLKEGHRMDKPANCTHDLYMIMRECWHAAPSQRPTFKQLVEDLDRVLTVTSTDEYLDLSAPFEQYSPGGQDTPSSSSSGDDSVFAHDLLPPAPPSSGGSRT
T3 sequence (Q16513 whole entry): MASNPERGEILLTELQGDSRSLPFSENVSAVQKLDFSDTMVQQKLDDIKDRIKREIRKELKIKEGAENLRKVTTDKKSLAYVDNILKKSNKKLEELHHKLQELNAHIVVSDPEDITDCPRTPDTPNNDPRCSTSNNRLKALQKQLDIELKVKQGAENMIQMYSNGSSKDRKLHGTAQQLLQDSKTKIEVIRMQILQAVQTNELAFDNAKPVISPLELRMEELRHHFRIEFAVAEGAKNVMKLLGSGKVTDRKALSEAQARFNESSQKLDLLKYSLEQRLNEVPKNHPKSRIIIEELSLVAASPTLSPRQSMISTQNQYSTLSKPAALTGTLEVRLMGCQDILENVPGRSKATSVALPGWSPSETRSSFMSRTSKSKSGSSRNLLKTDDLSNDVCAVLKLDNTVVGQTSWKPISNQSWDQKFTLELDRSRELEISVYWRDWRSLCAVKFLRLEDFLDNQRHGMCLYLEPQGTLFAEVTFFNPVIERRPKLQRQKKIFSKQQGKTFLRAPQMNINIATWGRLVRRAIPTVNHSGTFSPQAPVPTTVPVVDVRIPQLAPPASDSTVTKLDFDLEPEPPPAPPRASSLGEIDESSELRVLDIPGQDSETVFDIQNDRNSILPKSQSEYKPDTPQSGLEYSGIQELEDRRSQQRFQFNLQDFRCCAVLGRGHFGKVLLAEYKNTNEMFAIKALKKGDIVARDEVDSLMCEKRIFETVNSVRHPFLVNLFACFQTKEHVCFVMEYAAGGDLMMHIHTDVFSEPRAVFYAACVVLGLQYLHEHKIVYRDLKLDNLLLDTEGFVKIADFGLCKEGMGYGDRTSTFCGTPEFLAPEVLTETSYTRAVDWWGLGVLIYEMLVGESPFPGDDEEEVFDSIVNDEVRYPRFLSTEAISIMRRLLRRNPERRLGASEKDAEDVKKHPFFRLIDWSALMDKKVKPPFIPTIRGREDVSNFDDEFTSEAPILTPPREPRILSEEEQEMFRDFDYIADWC

SMILES | KINOMEscan: CSF1R [1] | KINOMEscan: FGFR3 [2] | KINOMEscan: PKN2 [3]
COc1cc(C(=O)N2CCC(N3CCN(C)CC3)CC2)ccc1Nc1ncc2c(n1)N(C)c1ccccc1C(=O)N2C [15 (LRRK2-IN-1)] | 98 | 80 | 95
CCOc1cc(C(=O)N2CCC(N3CCN(C)CC3)CC2)ccc1Nc1ncc2c(n1)N(C1CCCC1)c1ccccc1C(=O)N2C [Compound 26] | 100 | 100 | 100
COc1cc(C(=O)N2CCC(N3CCN(C)CC3)CC2)ccc1Nc1ncc2c(n1)N1CCc3cccc(c31)C(=O)N2C [Compound 24] | 57 | 80 | 82
COc1cc(C(=O)N2CCC(N3CCN(C)CC3)CC2)ccc1Nc1ncc2c(n1)N(C1CCCC1)c1ccccc1C(=O)N2C [Compound 25, 11-cyclopentyl-2-((2-methoxy-4-(4-(4-methylpiperazin-1-yl)piperidine-1-carbonyl)phenyl)amino)-5-methyl-5H-benzo[e]pyrimido[5,4-b][1,4]diazepin-6(11H)-one] | 56 | 88 | 100
